Measurements taken from ChEMBL document CHEMBL1133775, “Potent and selective indolomorphinan antagonists of the kappa-opioid receptor” (J Med Chem, 2000).
pKi: −log10 of the molar value.

Key:
[1] = molecular target: Kappa-type opioid receptor (Cavia porcellus) (UniProt P41144); experiment: Opioid receptor kappa 1 Antagonism (100 nM) is expressed as (Ke = [antagonist] / (IC50 ratio -1); assay type: functional
[2] = molecular target: Mu-type opioid receptor (Cavia porcellus) (UniProt P97266); experiment: Opioid receptor mu 1 Antagonism (100 nM) is expressed as (Ke = [antagonist] / (IC50 ratio -1); assay type: functional
Mu-type opioid receptor (Cavia porcellus), sequence (P97266 whole entry): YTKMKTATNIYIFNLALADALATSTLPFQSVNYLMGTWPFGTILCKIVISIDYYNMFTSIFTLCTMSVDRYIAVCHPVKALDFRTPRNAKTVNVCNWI

[3] = molecular target: Kappa-type opioid receptor (Cavia porcellus) (UniProt P41144); experiment: Ratio of the IC50 of Kappa receptor agonist, ethylketazocine in the presence of compound in GPI divided by the control IC50.; assay type: functional
[4] = molecular target: Delta-type opioid receptor (Mus musculus) (UniProt P32300); experiment: Ratio of the IC50 of delta receptor agonist, [D-Ala-2, D-Leu5]-enkephalin in the presence of compound in MVD divided by the control IC50.; assay type: functional
Delta-type opioid receptor (Mus musculus), sequence (P32300 whole entry): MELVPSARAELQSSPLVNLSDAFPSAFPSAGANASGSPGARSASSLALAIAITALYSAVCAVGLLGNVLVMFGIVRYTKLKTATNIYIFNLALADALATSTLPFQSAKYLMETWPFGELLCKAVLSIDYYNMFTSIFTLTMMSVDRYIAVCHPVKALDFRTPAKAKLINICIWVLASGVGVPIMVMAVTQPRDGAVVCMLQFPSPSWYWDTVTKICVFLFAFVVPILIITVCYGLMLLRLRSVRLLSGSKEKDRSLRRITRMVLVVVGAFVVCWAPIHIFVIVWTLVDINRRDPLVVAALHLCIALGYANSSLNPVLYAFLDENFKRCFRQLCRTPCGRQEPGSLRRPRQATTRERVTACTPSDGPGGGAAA

[5] = molecular target: T1, Opioid receptors; delta & kappa (Homo sapiens) (UniProt P41145+P41143); experiment: Selectivity ratio, ratio of Ke value of kappa to delta opioid receptor (extrapolated value); assay type: protein assay
T1 sequence (P41143 whole entry, looked up): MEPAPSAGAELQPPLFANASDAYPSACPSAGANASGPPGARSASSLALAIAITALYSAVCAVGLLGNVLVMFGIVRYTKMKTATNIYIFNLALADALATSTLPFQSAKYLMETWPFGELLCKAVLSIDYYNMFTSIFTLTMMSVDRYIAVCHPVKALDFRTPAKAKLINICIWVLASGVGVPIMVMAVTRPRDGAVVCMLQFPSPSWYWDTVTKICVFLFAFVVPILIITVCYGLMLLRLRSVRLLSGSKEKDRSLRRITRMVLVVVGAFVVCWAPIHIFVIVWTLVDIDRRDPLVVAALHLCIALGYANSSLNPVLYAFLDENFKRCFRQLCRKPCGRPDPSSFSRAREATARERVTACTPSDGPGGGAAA
T1 sequence (P41145 whole entry, looked up): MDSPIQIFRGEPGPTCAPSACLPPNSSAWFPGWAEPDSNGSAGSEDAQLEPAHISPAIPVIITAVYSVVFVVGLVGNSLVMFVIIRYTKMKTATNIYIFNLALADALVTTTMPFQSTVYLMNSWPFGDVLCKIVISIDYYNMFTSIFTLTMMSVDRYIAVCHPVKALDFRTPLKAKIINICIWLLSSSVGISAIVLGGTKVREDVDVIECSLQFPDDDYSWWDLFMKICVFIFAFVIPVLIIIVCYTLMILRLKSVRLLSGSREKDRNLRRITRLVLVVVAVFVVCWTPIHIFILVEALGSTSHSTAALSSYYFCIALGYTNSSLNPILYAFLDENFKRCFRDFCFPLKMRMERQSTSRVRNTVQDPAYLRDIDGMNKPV

[6] = Selectivity ratio, ratio of Ke value of mu to kappa opioid receptor
[7] = molecular target: Mu-type opioid receptor (Cavia porcellus) (UniProt P97266); experiment: Ratio of the IC50 of mu receptor agonist, Morphine in the presence of compound in GPI divided by the control IC50.; assay type: functional
[8] = molecular target: Kappa-type opioid receptor (Rattus norvegicus, UniProt P34975); experiment: Binding affinity on HEK293 cells transiently transfected with plasmids encoding the rat Opioid receptor kappa 1; assay type: cell-based
Kappa-type opioid receptor, sequence (P34975 whole entry): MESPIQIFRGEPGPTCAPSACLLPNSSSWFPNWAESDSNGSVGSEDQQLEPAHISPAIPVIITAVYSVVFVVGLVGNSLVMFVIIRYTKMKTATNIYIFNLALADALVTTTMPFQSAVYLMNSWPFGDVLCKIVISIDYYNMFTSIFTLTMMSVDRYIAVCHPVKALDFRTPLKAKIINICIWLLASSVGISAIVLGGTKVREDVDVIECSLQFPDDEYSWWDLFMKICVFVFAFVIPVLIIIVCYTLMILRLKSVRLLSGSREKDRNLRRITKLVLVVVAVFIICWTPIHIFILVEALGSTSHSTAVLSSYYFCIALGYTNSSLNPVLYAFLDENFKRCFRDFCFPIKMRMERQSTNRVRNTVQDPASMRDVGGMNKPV

[9] = molecular target: Mu-type opioid receptor (Rattus norvegicus, UniProt P33535); experiment: Binding affinity on HEK293 cells transiently transfected with plasmids encoding the rat Opioid receptor mu 1; assay type: cell-based
Mu-type opioid receptor, sequence (P33535 whole entry): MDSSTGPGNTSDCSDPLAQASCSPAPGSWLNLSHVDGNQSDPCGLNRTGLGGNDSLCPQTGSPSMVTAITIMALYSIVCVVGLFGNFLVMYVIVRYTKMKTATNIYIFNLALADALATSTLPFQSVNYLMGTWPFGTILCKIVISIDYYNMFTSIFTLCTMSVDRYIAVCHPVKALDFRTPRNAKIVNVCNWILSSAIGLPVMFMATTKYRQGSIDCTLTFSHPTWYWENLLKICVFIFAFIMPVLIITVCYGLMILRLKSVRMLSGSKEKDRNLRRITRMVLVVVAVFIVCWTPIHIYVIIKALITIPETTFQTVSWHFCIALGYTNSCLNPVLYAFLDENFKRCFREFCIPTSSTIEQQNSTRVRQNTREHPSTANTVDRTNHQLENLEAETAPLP

[10] = molecular target: Delta-type opioid receptor (Rattus norvegicus, UniProt P33533); experiment: Binding affinity on HEK293 cells transiently transfected with plasmids encoding the rat Opioid receptor delta 1; assay type: cell-based
Delta-type opioid receptor, sequence (P33533 whole entry): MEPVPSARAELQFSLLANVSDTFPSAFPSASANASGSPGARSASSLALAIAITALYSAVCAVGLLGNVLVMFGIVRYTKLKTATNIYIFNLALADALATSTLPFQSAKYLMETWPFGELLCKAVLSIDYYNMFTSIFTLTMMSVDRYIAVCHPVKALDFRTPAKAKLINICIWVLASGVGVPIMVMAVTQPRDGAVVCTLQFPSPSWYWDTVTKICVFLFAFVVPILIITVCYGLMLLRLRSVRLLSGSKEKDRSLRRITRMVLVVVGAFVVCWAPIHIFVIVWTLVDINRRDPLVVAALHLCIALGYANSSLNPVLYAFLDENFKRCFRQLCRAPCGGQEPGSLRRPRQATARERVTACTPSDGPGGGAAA

[11] = Selectivity ratio, ratio of Ke value of Kappa to Delta opioid receptor
[12] = molecular target: Delta-type opioid receptor (Mus musculus) (UniProt P32300); experiment: Opioid receptor delta 1 Antagonism (100 nM) is expressed as (Ke = [antagonist] / (IC50 ratio -1); assay type: functional
[13] = molecular target: T1, Opioid receptors; delta & kappa (Homo sapiens); experiment: Selectivity ratio, ratio of Ke value of delta to kappa opioid receptor; assay type: protein assay
[14] = molecular target: T1, Opioid receptors; delta & kappa (Homo sapiens); experiment: Selectivity ratio, ratio of Ke value of Kappa to Delta opioid receptor (extrapolated value); assay type: protein assay
[15] = molecular target: T1, Opioid receptors; delta & kappa (Homo sapiens); experiment: Selectivity ratio, ratio of binding affinity of delta to kappa opioid receptor; assay type: protein assay
[16] = molecular target: T2, Opioid receptors; mu & kappa (Homo sapiens) (UniProt P41145+P35372); experiment: Selectivity ratio, ratio of binding affinity of mu to kappa opioid receptor; assay type: protein assay
T2 sequence (P35372 whole entry, looked up): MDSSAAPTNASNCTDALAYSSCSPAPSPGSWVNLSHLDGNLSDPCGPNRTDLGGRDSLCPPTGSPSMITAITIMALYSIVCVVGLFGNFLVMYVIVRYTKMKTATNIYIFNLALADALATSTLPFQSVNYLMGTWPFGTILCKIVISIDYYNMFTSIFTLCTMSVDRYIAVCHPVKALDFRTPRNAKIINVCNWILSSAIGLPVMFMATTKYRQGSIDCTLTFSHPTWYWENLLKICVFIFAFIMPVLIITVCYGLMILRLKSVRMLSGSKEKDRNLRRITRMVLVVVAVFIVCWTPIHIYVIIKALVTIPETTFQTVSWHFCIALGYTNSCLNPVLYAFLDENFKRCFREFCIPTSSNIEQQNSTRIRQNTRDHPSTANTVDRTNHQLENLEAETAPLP
T2 sequence (P41145 whole entry, looked up): as the sequence (P41145 whole entry, looked up) above

[17] = molecular target: T2, Opioid receptors; mu & kappa (Homo sapiens); experiment: Selectivity ratio, ratio of Ke value of Kappa to mu opioid receptor; assay type: protein assay

Kappa-type opioid receptor (Cavia porcellus), sequence (P41144 whole entry): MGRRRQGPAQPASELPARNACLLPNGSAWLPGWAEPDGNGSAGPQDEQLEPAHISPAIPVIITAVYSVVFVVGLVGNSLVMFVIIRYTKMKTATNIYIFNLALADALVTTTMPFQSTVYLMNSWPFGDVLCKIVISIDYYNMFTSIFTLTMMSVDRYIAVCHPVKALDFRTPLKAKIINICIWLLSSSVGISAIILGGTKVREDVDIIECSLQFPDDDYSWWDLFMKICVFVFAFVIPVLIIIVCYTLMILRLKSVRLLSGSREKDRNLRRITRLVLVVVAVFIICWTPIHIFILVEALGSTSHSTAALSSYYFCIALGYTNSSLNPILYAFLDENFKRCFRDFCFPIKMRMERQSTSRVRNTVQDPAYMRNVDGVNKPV

Structure (SMILES) | Ke [1] | Ke [2] | IC50 ratio [3] | IC50 ratio [4] | Ratio [5] | Ratio [6] | IC50 ratio [7] | pKi [8] | pKi [9] | pKi [10] | Ratio [11] | Ke [12] | Ratio [13] | Ratio [14] | Ratio [15] | Ratio [16] | Ratio [17]
C[N+](C)(C)CCc1ccc2[nH]c3c(c2c1)C[C@@]1(O)C2Cc4ccc(O)c5c4[C@@]1(CCN2CC1CC1)[C@H]3O5 | 0.4 nM | 5.7 nM | 48 | 2.5 | 96 | 13 | 18.5 |  |  |  |  |  |  |  |  |  | 
N=C(N)N=C(N)Nc1ccc2[nH]c3c(c2c1)C[C@@]1(O)C2Cc4ccc(O)c5c4[C@@]1(CCN2CC1CC1)[C@H]3O5 |  |  |  |  |  |  |  | 9.65 | 7.67 | 6.97 |  |  |  |  |  |  | 
N=C(N)Cc1ccc2[nH]c3c(c2c1)C[C@@]1(O)C2Cc4ccc(O)c5c4[C@@]1(CCN2CC1CC1)[C@H]3O5 | 2.2 nM |  | 46.7 | 1.8 |  |  | 2.1 | 9.67 | 7.39 | 7.48 | 26 |  |  |  |  |  | 
NCc1ccc2[nH]c3c(c2c1)C[C@@]1(O)C2Cc4ccc(O)c5c4[C@@]1(CCN2CC1CC1)[C@H]3O5 | 34 nM | 61 nM | 3.9 | 6.4 |  | 1.8 | 2.6 |  |  |  |  | 18 nM | 0.5 |  |  |  | 
N/C(S)=N/c1ccc2[nH]c3c(c2c1)C[C@@]1(O)C2Cc4ccc(O)c5c4[C@@]1(CCN2CC1CC1)[C@H]3O5 | 7.2 nM | 38 nM | 14.9 | 1.3 |  | 5.3 | 3.6 |  |  |  | 12 |  |  |  |  |  | 
CN(C)c1ccc2[nH]c3c(c2c1)C[C@@]1(O)C2Cc4ccc(O)c5c4[C@@]1(CCN2CC1CC1)[C@H]3O5 | 6.8 nM | 36 nM | 15.8 | 2.4 |  | 5.3 | 3.8 |  |  |  | 6.6 |  |  |  |  |  | 
CSC(=N)Nc1ccc2[nH]c3c(c2c1)C[C@@]1(O)C2Cc4ccc(O)c5c4[C@@]1(CCN2CC1CC1)[C@H]3O5 | 0.5 nM | 16 nM | 43.6 | 1.9 |  | 33 | 7.4 |  |  |  |  |  |  | 115 |  |  | 
CC(=N)NCCc1ccc2[nH]c3c(c2c1)C[C@@]1(O)C2Cc4ccc(O)c5c4[C@@]1(CCN2CC1CC1)[C@H]3O5 | 0.3 nM | 7.6 nM | 72.1 | 6.4 |  | 27 | 14.1 |  |  |  |  |  | 65 |  |  |  | 
CC(=N)NCc1ccc2[nH]c3c(c2c1)C[C@@]1(O)C2Cc4ccc(O)c5c4[C@@]1(CCN2CC1CC1)[C@H]3O5 | 6.1 nM | 8.8 nM | 17.3 | 0.88 |  | 1.4 | 12.4 |  |  |  | 17.3 |  |  |  |  |  | 
C[N+](C)(C)Cc1ccc2[nH]c3c(c2c1)C[C@@]1(O)C2Cc4ccc(O)c5c4[C@@]1(CCN2CC1CC1)[C@H]3O5 | 0.7 nM | 4 nM | 154 | 0.79 |  | 6.2 | 25.8 | 9.45 | 7.89 | 7.11 | 154 |  |  |  | 221 | 36 | 
Nc1ccc2[nH]c3c(c2c1)C[C@@]1(O)C2Cc4ccc(O)c5c4[C@@]1(CCN2CC1CC1)[C@H]3O5 |  | 57 nM | 4 | 10.3 |  |  | 2.8 |  |  |  | 0.4 |  |  |  |  |  | 1.5
CC(=N)Nc1ccc2[nH]c3c(c2c1)C[C@@]1(O)C2Cc4ccc(O)c5c4[C@@]1(CCN2CC1CC1)[C@H]3O5 | 1 nM | 16 nM | 99.4 | 1.9 |  | 15 | 7.5 |  |  |  | 52 |  |  |  |  |  | 
N#CN/C(N)=N/Cc1ccc2[nH]c3c(c2c1)C[C@@]1(O)C2Cc4ccc(O)c5c4[C@@]1(CCN2CC1CC1)[C@H]3O5 | 2.9 nM | 18 nM | 35.4 | 17.9 |  | 6.2 | 6.7 |  |  |  |  | 5.9 nM | 2 |  |  |  | 
N=C(N)Nc1ccc2[nH]c3c(c2c1)C[C@@]1(O)[C@H]2Cc4ccc(O)c5c4[C@@]1(CCN2CC1CC1)[C@H]3O5 [GUANIDINONALTRINDOLE] |  |  |  |  |  | 193 |  | 9.74 | 7.65 | 7.34 |  |  |  | 366 | 257 | 125 | 
CN(C)Cc1ccc2[nH]c3c(c2c1)C[C@@]1(O)C2Cc4ccc(O)c5c4[C@@]1(CCN2CC1CC1)[C@H]3O5 | 0.8 nM | 9.8 nM | 125 | 1.4 |  | 12 | 11.2 | 9.08 | 7.44 | 7.80 | 87 |  |  |  | 19 | 44 | 
CN1CC[C@]23c4c5ccc(O)c4O[C@H]2c2[nH]c4ccc(N=C(N)N)cc4c2C[C@@]3(O)C1C5 |  |  |  |  |  |  |  | 8.55 | 6.06 | < 5.00 |  |  |  |  |  |  | 
CN1CC[C@]23c4c5ccc(O)c4O[C@H]2c2[nH]c4ccc(NC(=N)N)cc4c2C[C@@]3(O)C1C5 | 17 nM |  | 6.8 | 1.7 |  |  | 1.1 |  |  |  | 4.1 |  |  |  | > 3530 | 310 | 6.3
N#CN=C(N)Nc1ccc2[nH]c3c(c2c1)C[C@@]1(O)C2Cc4ccc(O)c5c4[C@@]1(CCN2CC1CC1)[C@H]3O5 |  |  |  |  |  |  |  | 8.35 | 7.05 | 8.02 |  |  |  |  |  |  | 
NCCc1ccc2[nH]c3c(c2c1)C[C@@]1(O)C2Cc4ccc(O)c5c4[C@@]1(CCN2CC1CC1)[C@H]3O5 | 2.1 nM |  | 48.1 | 2.3 |  |  | 3.2 |  |  |  | 21 |  |  |  |  |  | 15
N=C(N)c1ccc2[nH]c3c(c2c1)C[C@@]1(O)C2Cc4ccc(O)c5c4[C@@]1(CCN2CC1CC1)[C@H]3O5 | 0.7 nM | 16 nM | 142 | 0.3 |  | 22 | 7.2 | 9.28 | 7.18 | 6.95 | 142 |  |  |  |  |  | 
N#CN/C(N)=N/c1ccc2[nH]c3c(c2c1)C[C@@]1(O)C2Cc4ccc(O)c5c4[C@@]1(CCN2CC1CC1)[C@H]3O5 |  |  | 33 | 12 |  | 5.1 | 7.2 |  |  |  |  |  | 2.9 |  | 2 | 20 | 
N=C(N)/N=C(\N)Nc1ccc2[nH]c3c(c2c1)C[C@@]1(O)C2Cc4ccc(O)c5c4[C@@]1(CCN2CC1CC1)[C@H]3O5 | 0.2 nM | 14 nM | 512 | 0.41 |  | 74 | 7.9 |  |  |  | 512 |  |  |  | 478 | 95 | 
N=C(N)NCCc1ccc2[nH]c3c(c2c1)C[C@@]1(O)[C@H]2Cc4ccc(O)c5c4[C@@]1(CCN2CC1CC1)[C@H]3O5 | 1.7 nM | 12 nM | 59.8 | 30.1 |  | 7.3 | 9.1 | 9.29 | 7.48 | 7.97 |  | 3.4 nM | 2 |  | 21 | 66 | 
N=C(N)NCc1ccc2[nH]c3c(c2c1)C[C@@]1(O)[C@H]2Cc4ccc(O)c5c4[C@@]1(CCN2CC1CC1)[C@H]3O5 | 0.6 nM | 11 nM | 172 | 0.88 |  | 19 | 10.3 | 9.13 | 7.18 | 7.51 | 172 |  |  |  | 41 | 89 | 
C[N+](C)(C)c1ccc2[nH]c3c(c2c1)C[C@@]1(O)C2Cc4ccc(O)c5c4[C@@]1(CCN2CC1CC1)[C@H]3O5 | 3.1 nM |  | 33.3 | 3.6 |  |  | 2.7 |  |  |  | 9.1 |  |  |  |  |  | 13
Oc1ccc2c3c1O[C@H]1c4[nH]c5c(c4C[C@@]4(O)[C@@H](C2)N(CC2CC2)CC[C@]314)C[C@@]1(O)[C@H]2Cc3ccc(O)c4c3[C@@]1(CCN2CC1CC1)[C@H]5O4 [NORBINALTORPHIMINE] |  |  |  |  |  |  |  | 9.61 |  | 7.38 |  |  |  |  |  |  | 
CN(C)CCc1ccc2[nH]c3c(c2c1)C[C@@]1(O)C2Cc4ccc(O)c5c4[C@@]1(CCN2CC1CC1)[C@H]3O5 | 3.2 nM |  | 32 | 1.8 |  |  | 2.4 |  |  |  | 18 |  |  |  |  |  | 13
